This is an account of results in article PMC9034499, “RORγt agonist enhances anti-PD-1 therapy by promoting monocyte-derived dendritic cells through CXCL10 in cancers” (Journal of Experimental & Clinical Cancer Research : CR, 2022).

The nature of data set [1]: Drug toxicity evaluation by histopathology (H&E staining). The data set is classed as in vivo, mice. The following applies: 50 mg/kg or 100 mg/kg i.p. daily for two weeks. How it is done:
We further explored the in vivo efficacy of 8-074. First, we conducted a drug toxicity evaluation by histopathology using H&E staining. […] Given the in vivo toxicity and body weight loss during dose escalation, we determined 50 mg/kg for use in the in vivo mechanistic study. The anti-tumor effect of 8-074 was also tested in two other murine syngeneic tumor models (B16F10 and MC38, which are models of melanoma and colon adenocarcinoma, respectively).
Supplementary file 13046_2022_2289_MOESM3_ESM.pdf: Additional file 3: Fig. S3. Selectivity and safety analysis of 8-074. (a) Representative hematoxylin and eosin (H&E) staining micrograph (200 ×) of heart, liver, lung, kidney, spleen, and intestine sections from mice receiving vehicle, 50 mg/kg, or 100 mg/kg 8-074 for two weeks. Scale bar = 100 μm. Vehicle, daily administration of 50 μL DMSO by intraperitoneal injection; 50 mg/kg and 100 mg/kg, daily administration of the corresponding dose (volume less than or equal to 50 μL) by intraperitoneal injection. The cell morphology, number, and distribution in heart, liver, lung, kidney, spleen, and intestine tissues after 8-074 injection were not different from those in the vehicle group. (b and c) Effects of 8-074 on body weight in mice. Data represents the mean ± SD from biological quadruplicates. All error bars represent mean ± SD. Data are from three independent experiments.

In data set [2] the test system is Th17 cells (CD4+ T cells). As to the kind of experiment: Murine Th17 differentiation, flow cytometry. In kind it is cell-based, mouse. The following applies: Th17, intracellular staining, same concentration. As for the experimental part:
CD4^+ CD25^−CD62L^high cells were purified from C57BL/6 splenocytes using an EasySep Mouse Naïve CD4^+ T cell isolation kit from STEMCELL Technologies (Vancouver, Canada), and they were differentiated into Th17 cells (TGF-β, 2 ng/ml; IL-6, 20 ng/ml; Anti-IFN-γ, 10 μg/ml; Anti-IL-4, 10 μg/ml, BioLegend, San Diego, CA) in the presence of plate-bound anti-CD3 (5 μg/ml, BioLegend, San Diego, CA) and anti-CD28 (2 μg/ml, BioLegend, San Diego, CA). The cells were harvested and processed for cytokine analysis at the RNA or protein level using real-time qPCR, flow cytometry, and ELISA on day five. Alternatively, splenocytes from OT-I mice were activated using OVA-derived peptides SIINFEKL (50 ng/ml, Sangon Biotech, Shanghai, China) and polarized to Tc17 cells using cytokine TGF-β (2 ng/ml, BioLegend, San Diego, CA) and IL-6 (20 ng/ml, BioLegend, San Diego, CA) for four or five days.
Cells were stained with fluorochrome-labeled anti-mouse Ab such as CD45, CD3, CD4, CD8, Foxp3, IFN-γ, IL-17A, CD11b, CD11c, pAKT, pSTAT3, CCR6, or MHCII. […] Cells were acquired using the FACS Aria II machine and analyzed using FlowJo software.
A general note: In flow cytometry, cells or beads pass a laser one at a time.

With `CCS(=O)(=O)c1ccc(CC(=O)Nc2ccc(-c3ccc(CC(C)C)c(C#N)c3)c(C(F)(F)F)c2)cc1` [8-074], in data set [1], the “histopathology, H&E staining of organs” value was “No noteworthy necrosis or other abnormality was observed”. Also, the “percentage of CD4+ T cells that express IL-17A” value in data set [2] stood at 24.0%.
